As a reminder, the IC50 is the midpoint of a concentration-inhibition curve.

Where only a bound is given, the exact number is not on record here.

Sequence of c-Mer (Q12866 21-999): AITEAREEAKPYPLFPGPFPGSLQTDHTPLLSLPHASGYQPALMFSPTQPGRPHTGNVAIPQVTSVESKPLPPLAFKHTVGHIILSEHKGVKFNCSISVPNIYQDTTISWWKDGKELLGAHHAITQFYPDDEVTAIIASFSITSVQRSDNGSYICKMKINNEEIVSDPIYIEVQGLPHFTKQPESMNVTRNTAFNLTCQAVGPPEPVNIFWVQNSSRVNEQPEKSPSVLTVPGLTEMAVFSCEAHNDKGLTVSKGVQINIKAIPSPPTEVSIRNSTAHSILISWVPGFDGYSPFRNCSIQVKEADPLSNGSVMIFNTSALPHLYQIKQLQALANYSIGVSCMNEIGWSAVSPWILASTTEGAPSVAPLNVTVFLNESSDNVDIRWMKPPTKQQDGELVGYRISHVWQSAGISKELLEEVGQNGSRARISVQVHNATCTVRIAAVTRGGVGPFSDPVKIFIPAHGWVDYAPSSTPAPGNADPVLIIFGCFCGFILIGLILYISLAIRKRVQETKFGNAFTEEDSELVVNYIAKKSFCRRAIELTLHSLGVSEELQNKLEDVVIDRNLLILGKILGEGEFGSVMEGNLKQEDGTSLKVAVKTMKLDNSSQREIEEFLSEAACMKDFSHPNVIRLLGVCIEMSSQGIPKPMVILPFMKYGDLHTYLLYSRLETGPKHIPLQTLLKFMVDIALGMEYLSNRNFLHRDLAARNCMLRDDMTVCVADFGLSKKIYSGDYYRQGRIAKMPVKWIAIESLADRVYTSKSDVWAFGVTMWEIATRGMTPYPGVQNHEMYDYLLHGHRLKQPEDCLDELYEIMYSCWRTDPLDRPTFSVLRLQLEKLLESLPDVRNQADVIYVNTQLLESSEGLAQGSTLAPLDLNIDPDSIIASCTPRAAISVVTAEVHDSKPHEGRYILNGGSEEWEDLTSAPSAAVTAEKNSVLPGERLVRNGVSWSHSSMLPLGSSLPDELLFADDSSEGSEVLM
Sequence of Tyro3 (Q06418 41-890): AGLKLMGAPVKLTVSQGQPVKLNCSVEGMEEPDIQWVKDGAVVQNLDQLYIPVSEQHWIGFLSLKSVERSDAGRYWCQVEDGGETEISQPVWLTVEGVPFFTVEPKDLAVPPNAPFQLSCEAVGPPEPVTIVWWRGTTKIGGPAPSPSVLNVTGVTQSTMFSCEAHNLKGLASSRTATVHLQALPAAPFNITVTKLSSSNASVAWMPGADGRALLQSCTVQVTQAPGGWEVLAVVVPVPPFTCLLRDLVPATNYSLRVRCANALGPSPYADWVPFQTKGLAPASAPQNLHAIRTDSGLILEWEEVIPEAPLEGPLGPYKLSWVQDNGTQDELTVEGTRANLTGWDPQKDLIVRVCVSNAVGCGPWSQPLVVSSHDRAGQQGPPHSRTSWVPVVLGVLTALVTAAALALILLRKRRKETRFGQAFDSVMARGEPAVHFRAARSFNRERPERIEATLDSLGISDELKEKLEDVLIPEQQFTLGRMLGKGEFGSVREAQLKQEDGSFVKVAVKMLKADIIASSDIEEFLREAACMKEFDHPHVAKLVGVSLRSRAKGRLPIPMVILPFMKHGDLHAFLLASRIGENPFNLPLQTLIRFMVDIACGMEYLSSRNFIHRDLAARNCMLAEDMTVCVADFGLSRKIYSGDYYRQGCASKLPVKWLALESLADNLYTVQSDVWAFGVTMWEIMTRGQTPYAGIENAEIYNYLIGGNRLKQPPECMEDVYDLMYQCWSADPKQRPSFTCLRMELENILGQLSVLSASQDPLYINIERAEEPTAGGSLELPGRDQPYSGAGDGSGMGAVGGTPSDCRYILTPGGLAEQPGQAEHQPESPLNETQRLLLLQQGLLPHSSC

The target of one test is PI3Kδ (Homo sapiens (Human), UniProt O00329).
Sequence of PI3Kδ (O00329 whole entry, species assumed): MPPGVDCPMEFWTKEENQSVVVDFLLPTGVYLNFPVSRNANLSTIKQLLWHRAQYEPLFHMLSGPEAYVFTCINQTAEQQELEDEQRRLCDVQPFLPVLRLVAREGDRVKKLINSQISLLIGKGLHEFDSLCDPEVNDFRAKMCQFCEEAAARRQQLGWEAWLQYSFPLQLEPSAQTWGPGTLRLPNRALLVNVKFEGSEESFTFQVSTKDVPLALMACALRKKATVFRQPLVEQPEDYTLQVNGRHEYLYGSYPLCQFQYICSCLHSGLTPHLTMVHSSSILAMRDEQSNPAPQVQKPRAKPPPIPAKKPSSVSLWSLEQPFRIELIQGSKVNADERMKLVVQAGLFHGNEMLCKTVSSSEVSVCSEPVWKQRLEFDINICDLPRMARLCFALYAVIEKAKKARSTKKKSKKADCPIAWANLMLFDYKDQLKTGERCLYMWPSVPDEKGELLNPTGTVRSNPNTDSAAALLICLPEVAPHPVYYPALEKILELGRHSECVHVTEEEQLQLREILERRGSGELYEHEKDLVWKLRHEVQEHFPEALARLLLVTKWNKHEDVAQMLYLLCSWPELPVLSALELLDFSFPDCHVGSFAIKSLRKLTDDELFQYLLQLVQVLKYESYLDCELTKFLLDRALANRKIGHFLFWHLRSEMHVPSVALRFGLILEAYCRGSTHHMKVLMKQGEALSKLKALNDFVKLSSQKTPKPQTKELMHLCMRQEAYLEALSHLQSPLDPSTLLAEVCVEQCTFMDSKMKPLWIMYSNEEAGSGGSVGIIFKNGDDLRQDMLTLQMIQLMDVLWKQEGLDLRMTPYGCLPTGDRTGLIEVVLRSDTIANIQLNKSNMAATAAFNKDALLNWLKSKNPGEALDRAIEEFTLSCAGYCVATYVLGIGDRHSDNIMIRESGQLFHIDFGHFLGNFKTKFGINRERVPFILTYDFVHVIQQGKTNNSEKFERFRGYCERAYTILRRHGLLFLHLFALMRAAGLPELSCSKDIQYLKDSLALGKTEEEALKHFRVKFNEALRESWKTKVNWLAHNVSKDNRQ
Sequence of PI3Kδ (P27986 whole entry partner, species assumed): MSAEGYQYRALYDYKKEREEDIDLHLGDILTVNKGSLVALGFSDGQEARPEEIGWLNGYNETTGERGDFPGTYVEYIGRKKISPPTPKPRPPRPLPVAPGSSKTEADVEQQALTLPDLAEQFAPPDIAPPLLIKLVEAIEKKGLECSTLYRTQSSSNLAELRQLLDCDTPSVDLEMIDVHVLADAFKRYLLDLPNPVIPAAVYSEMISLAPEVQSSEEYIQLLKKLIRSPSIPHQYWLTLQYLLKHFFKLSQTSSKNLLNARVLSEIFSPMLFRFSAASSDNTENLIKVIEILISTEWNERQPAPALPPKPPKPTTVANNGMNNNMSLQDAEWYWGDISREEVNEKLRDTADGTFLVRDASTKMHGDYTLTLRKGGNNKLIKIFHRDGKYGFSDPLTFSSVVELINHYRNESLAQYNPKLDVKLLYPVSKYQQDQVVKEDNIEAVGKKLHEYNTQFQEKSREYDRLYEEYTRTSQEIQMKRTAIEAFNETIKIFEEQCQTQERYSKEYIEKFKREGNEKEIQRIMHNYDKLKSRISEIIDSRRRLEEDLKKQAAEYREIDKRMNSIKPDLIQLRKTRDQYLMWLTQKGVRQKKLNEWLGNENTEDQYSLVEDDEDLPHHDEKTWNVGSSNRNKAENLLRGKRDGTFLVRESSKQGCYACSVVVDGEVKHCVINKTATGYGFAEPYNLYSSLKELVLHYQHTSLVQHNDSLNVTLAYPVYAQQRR
Experiment: not given
To be noted: cited from earlier work.
Take `CCOc1c(C(C)n2nc(C)c3c(N)ncnc32)cc(Cl)c(F)c1C1CNC(=O)C1` (single isomer, unassigned) [Compound 32b, 4-{3-[1-(4-amino-3-methyl-1H-pyrazolo[3,4-d]pyrimidin-1-yl)ethyl]-5-chloro-2-ethoxy-6-fluorophenyl}pyrrolidin-2-one]: the IC50 is < 50 nM.

Another test has as its target c-Mer (Homo sapiens (Human), UniProt Q12866). The test can be described thus: TAM Enzymatic Assay (HTRF), c-Mer. The class given is biochemical. To be noted: 0.0625 nM c-Mer, ATP-containing substrate solution, 60 min. In general terms: In TR-FRET formats the signal depends on donor and acceptor labels being close together.
With `CCCCNc1ncc2c(-c3cccc(CO)c3)nc(C3CCC(O)CC3)n2n1` (single isomer, unassigned) [8 (1st peak), 4-{2-(Butylamino)-5-[3-(hydroxymethyl)phenyl]imidazo[5,1-f][1,2,4]triazin-7-yl}cyclohexanol], the IC50 is ≤ 100 nM.

`CCCCNc1ncc2c(-c3ccc(CO)cc3)nc([C@H]3CC[C@H](O)CC3)n2n1` [3 (1st peak, trans-), trans-4-{2-(Butylamino)-5-[4-(hydroxymethyl)phenyl]imidazo[5,1-f][1,2,4]triazin-7-yl}cyclohexanol]: the IC50 was ≤ 100 nM.

In the case of `CCCCNc1ncc2c(-c3ccc(CN4CCN(C)CC4)cc3)nc([C@H]3CC[C@@H](O)CC3)n2n1` [1 (2nd peak, cis-), cis-4-(2-(Butylamino)-5-{4-[(4-methylpiperazin-1-yl)methyl]phenyl}imidazo[5,1-f][1,2,4]triazin-7-yl)cyclohexanol], the IC50 was ≤ 100 nM.

In the case of `CCCCNc1ncc2c(-c3ccc(CN4CCOCC4)cc3)nc([C@H]3CC[C@H](O)CC3)n2n1` [2 (1st peak, trans-), trans-4-{2-(Butylamino)-5-[4-(morpholin-4-ylmethyl)phenyl]imidazo[5,1-f][1,2,4]triazin-7-yl}cyclohexanol], the IC50 is ≤ 100 nM.

For `CCCCNc1ncc2c(-c3ccc(CO)cc3)nc([C@H]3CC[C@@H](O)CC3)n2n1` [3 (2nd peak, cis-), cis-4-{2-(Butylamino)-5-[4-(hydroxymethyl)phenyl]imidazo[5,1-f][1,2,4]triazin-7-yl}cyclohexanol], the IC50 is > 1000 nM.

Another test deals with JAK1 (Homo sapiens (Human), UniProt P23458).
Sequence of JAK1 (P23458 whole entry, species assumed): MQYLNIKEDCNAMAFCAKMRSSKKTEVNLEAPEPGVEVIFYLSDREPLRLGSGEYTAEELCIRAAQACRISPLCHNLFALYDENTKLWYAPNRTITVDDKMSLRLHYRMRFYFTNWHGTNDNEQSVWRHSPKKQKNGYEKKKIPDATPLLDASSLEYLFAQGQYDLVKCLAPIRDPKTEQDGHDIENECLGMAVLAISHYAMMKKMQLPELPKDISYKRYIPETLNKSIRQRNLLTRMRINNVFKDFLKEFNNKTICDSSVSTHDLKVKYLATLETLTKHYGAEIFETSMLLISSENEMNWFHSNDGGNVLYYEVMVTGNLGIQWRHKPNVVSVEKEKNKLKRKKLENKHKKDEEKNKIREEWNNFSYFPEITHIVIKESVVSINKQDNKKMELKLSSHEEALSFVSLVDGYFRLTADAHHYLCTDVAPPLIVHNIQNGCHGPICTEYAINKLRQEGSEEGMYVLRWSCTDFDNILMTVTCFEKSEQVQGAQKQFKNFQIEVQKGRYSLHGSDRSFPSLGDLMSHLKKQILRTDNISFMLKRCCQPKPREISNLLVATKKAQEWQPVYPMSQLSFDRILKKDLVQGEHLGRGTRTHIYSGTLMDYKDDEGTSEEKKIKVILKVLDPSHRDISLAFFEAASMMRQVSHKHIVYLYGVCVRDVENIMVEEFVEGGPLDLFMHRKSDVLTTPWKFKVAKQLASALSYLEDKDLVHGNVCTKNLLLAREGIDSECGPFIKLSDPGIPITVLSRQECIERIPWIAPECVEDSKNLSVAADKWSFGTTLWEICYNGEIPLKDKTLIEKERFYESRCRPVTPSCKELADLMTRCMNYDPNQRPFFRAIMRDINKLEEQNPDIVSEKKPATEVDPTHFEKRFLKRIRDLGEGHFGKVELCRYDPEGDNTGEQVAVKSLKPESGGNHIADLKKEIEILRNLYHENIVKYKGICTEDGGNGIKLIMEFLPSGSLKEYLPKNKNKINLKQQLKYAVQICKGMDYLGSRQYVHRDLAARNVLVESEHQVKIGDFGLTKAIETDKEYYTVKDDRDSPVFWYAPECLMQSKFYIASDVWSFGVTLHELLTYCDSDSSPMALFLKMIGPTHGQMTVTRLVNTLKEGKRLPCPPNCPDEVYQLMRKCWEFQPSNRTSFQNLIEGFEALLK
Experiment: not given
The following applies: 1 mM ATP; cited from earlier work.
Consider “trans-7-((4-Aminocyclohexyl)methyl)-5-(4-fluorophenyl)-N-(3-phenylpropyl)imidazo [5,1-f][1,2,4]triazin-2-amine [Example 14]”, for which the IC50 is < 10 nM.

Still in this test, the particulars now being: selectivity ratio, IC50 at 1 mM ATP; cited from earlier work.
Turning to `CCNCc1cc(O[C@H]2CC[C@@H](N3CC(CC#N)(n4cc(-c5ncnc6[nH]ccc56)cn4)C3)CC2)nc(C(F)(F)F)c1` [Compound 19, {1-(cis-4-{[4-[(ethylamino)methyl]-6-(trifluoromethyl)pyridin-2-yl]oxy}cyclohexyl)-3-[4-(7H-pyrrolo [2,3-d]pyrimidin-4-yl)-1H-pyrazol-1-yl]azetidin-3-yl}acetonitrile], the JAK2/JAK1 was >10.

Consider `N#CCC(CN1CCN(C(=O)c2ccc(C#N)cc2F)CC1)n1cc(-c2ncnc3[nH]ccc23)cn1` (stereo not shown) [Compound 5, 4-[(4-{3-cyano-2-[4-(7H-pyrrolo[2,3-d]pyrimidin-4-yl)-1H-pyrazol-1-yl]propyl}piperazin-1-yl)carbonyl]-3-fluorobenzonitrile], for which the JAK2/JAK1 was >10.

`CC(C)(O)c1cc(O[C@H]2CC[C@@H](N3CC(CC#N)(n4cc(-c5ncnc6[nH]ccc56)cn4)C3)CC2)nc(C(F)(F)F)c1` [Compound 20, {1-(cis-4-{[4-(1-hydroxy-1-methylethyl)-6-(trifluoromethyl)pyridin-2-yl]oxy}cyclohexyl)-3-[4-(7H-pyrrolo [2,3-d]pyrimidin-4-yl)-1H-pyrazol-1-yl]azetidin-3-yl}acetonitrile]: the JAK2/JAK1 was >10.

Take `N#CC[C@]1(n2cc(-c3ncnc4[nH]ccc34)cn2)C[C@H](N2CCC(Oc3cc(CCO)cc(C(F)(F)F)n3)CC2)C1` [Compound 26, {trans-3-(4-{[4-(2-hydroxyethyl)-6-(trifluoromethyl)pyridin-2-yl]oxy}piperidin-1-yl)-1-[4-(7H-pyrrolo[2,3-d]pyrimidin-4-yl)-1H-pyrazol-1-yl]cyclobutyl} acetonitrile]: the JAK2/JAK1 is given as >10.

As to `C[C@H](NC(=O)c1cc(F)c(N2CC(CC#N)(n3cc(-c4ncnc5[nH]ccc45)cn3)C2)cc1F)C(F)(F)F` [Compound 16, 4-{3-(cyanomethyl)-3-[4-(7H-pyrrolo [2,3-d]pyrimidin-4-yl)-1H-pyrazol-1-yl]azetidin-1-yl}-2,5-difluoro-N-[(1S)-2,2,2-trifluoro-1-methylethyl] benzamide], the JAK2/JAK1 is recorded as >10.

Take `N#CCC(C1CCN(c2cccc(Cl)n2)C1)n1cc(-c2ncnc3[nH]ccc23)cn1` (stereo not shown) [Compound 3, 3-[1-(6-chloropyridin-2-yl)pyrrolidin-3-yl]-3-[4-(7H-pyrrolo[2,3-d]pyrimidin-4-yl)-1H-pyrazol-1-yl]propanenitrile]: the JAK2/JAK1 is >10.

Consider `N#CCC(C1CCN(c2nc3cccnc3o2)C1)n1cc(-c2ncnc3[nH]ccc23)cn1` (stereo not shown) [Compound 4, 3-(1-[1,3]oxazolo[5,4-b]pyridin-2-ylpyrrolidin-3-yl)-3-[4-(7H-pyrrolo[2,3-d]pyrimidin-4-yl)-1H-pyrazol-1-yl]propanenitrile], for which the JAK2/JAK1 is recorded as >10.

As to `CCCCNc1ncc2c(-c3ccc(F)cc3)nc(C[C@H]3CC[C@H](N)CC3)n2n1` [Example 13, trans-7-[(4-Aminocyclohexyl)methyl]-N-butyl-5-(4-fluorophenyl)imidazo[5,1-f][1,2,4]triazin-2-amine], the JAK2/JAK1 was >10.

Consider `C[C@@H](CO)NCc1cc(OC2CCN([C@H]3C[C@](CC#N)(n4cc(-c5ncnc6[nH]ccc56)cn4)C3)CC2)nc(C(F)(F)F)c1` [Compound 23, {trans-3-(4-{[4-({[(1S)-2-hydroxy-1-methylethyl]amino}methyl)-6-(trifluoromethyl)pyridin-2-yl]oxy}piperidin-1-yl)-1-[4-(7H-pyrrolo[2,3-d]pyrimidin-4-yl)-1H-pyrazol-1-yl]cyclobutyl} acetonitrile], for which the JAK2/JAK1 is recorded as >10.

Take `C[C@@H](O)CNCc1cc(OC2CCN([C@H]3C[C@](CC#N)(n4cc(-c5ncnc6[nH]ccc56)cn4)C3)CC2)nc(C(F)(F)F)c1` [Compound 24, {trans-3-(4-{[4-({[(2R)-2-hydroxypropyl]amino}methyl)-6-(trifluoromethyl)pyridin-2-yl]oxy}piperidin-1-yl)-1-[4-(7H-pyrrolo[2,3-d]pyrimidin-4-yl)-1H-pyrazol-1-yl]cyclobutyl} acetonitrile]: the JAK2/JAK1 was >10.

Regarding `N[C@H]1CC[C@H](Cc2nc(-c3ccc(F)cc3)c3cnc(NCCCc4ccccc4)nn23)CC1` [Example 14, trans-7-((4-Aminocyclohexyl)methyl)-5-(4-fluorophenyl)-N-(3-phenylpropyl)imidazo [5,1-f][1,2,4]triazin-2-amine], the JAK2/JAK1 was >10.

On to `N#CCC(CN1CCN(C(=O)c2ccc(C#N)cc2F)CC1)n1ccc(-c2ncnc3[nH]ccc23)c1` (stereo not shown) [Compound 6, 4-[(4-{3-cyano-2-[3-(7H-pyrrolo[2,3-d]pyrimidin-4-yl)-1H-pyrrol-1-yl]propyl}piperazin-1-yl)carbonyl]-3-fluorobenzonitrile], for which the JAK2/JAK1 is given as >10.

Consider `C[C@H](O)CNCc1cc(OC2CCN([C@H]3C[C@](CC#N)(n4cc(-c5ncnc6[nH]ccc56)cn4)C3)CC2)nc(C(F)(F)F)c1` [Compound 25, {trans-3-(4-{[4-({[(2S)-2-hydroxypropyl]amino}methyl)-6-(trifluoromethyl)pyridin-2-yl]oxy}piperidin-1-yl)-1-[4-(7H-pyrrolo[2,3-d]pyrimidin-4-yl)-1H-pyrazol-1-yl]cyclobutyl} acetonitrile], for which the JAK2/JAK1 is reported as >10.

Consider `C[C@@H](O)c1nc2cnc3ccsc3c2n1[C@H]1CC[C@H](CC#N)OC1` [Compound 1, ((2R,5S)-5-{2-[(1R)-1-hydroxyethyl]-1H-imidazo[4,5-d]thieno[3,2-b]pyridin-1-yl}tetrahydro-2H-pyran-2-yl)acetonitrile], for which the JAK2/JAK1 is reported as >10.

As for `N#CCC1(n2cc(-c3ncnc4[nH]ccc34)cn2)CN(C2CCN(C(=O)Nc3ccc(F)cc3C(F)(F)F)CC2)C1` [Compound 8, 4-{3-(Cyanomethyl)-3-[4-(7H-pyrrolo[2,3-d]pyrimidin-4-yl)-1H-pyrazol-1-yl]azetidin-1-yl}-N-[4-fluoro-2-(trifluoromethyl)phenyl]piperidine-1-carboxamide], the JAK2/JAK1 is >10.

Turning to `N#CCC1(n2cc(-c3ncnc4[nH]ccc34)cn2)CN(C2CCN(C(=O)c3ccnc(C(F)(F)F)n3)CC2)C1` [Compound 9, [3-[4-(7H-pyrrolo[2,3-d]pyrimidin-4-yl)-1H-pyrazol-1-yl]-1-(1-{[2-(trifluoromethyl)pyrimidin-4-yl]carbonyl}piperidin-4-yl)azetidin-3-yl]acetonitrile], the JAK2/JAK1 is given as >10.

On to `N#CCC1(n2cc(-c3ncnc4[nH]ccc34)cn2)CN([C@H]2CC[C@@H](Oc3cc(CCO)nc(C(F)(F)F)n3)CC2)C1` [Compound 18, {1-(cis-4-{[6-(2-hydroxyethyl)-2-(trifluoromethyl)pyrimidin-4-yl]oxy}cyclohexyl)-3-[4-(7H-pyrrolo [2,3-d]pyrimidin-4-yl)-1H-pyrazol-1-yl]azetidin-3-yl}acetonitrile], for which the JAK2/JAK1 was >10.

As to `N#CCC1(n2cc(-c3ncnc4[nH]ccc34)cn2)CN(C2CCN(C(=O)c3ccnc(C(F)(F)F)c3F)CC2)C1` [Compound 7, {1-{1-[3-Fluoro-2-(trifluoromethyl)isonicotinoyl]piperidin-4-yl}-3-[4-(7H-pyrrolo[2,3-d]pyrimidin-4-yl)-1H-pyrazol-1-yl]azetidin-3-yl}acetonitrile], the JAK2/JAK1 is >10.

In the case of `N#CC[C@]1(n2cc(-c3ncnc4[nH]ccc34)cn2)C[C@H](N2CCN(C(=O)c3ccnc(C(F)(F)F)n3)CC2)C1` [Compound 10, [trans-1-[4-(7H-pyrrolo[2,3-d]pyrimidin-4-yl)-1H-pyrazol-1-yl]-3-(4-{[2-(trifluoromethyl)pyrimidin-4-yl]carbonyl}piperazin-1-yl)cyclobutyl] acetonitrile], the JAK2/JAK1 is >10.

A further test has as its target Tyro3 (Homo sapiens (Human), UniProt Q06418). As to the kind of experiment: TAM Enzymatic Assay (HTRF), Tyro3. The class given is biochemical. The following applies: 0.366 nM Tyro3, 60 min.
Experimental: The kinase assay buffer contained 50 mM HEPES, pH7.5, 10 mM MgCl2, 1 mM EGTA, 0.01% NP-40 and 2 mM DTT. 0.1 ul test compounds dissolved in DMSO were transferred from compound plates to white 384-well assay plates (Greiner [sequence] plates). […] 4 ul enzyme solution (or assay buffer for the enzyme blank) was added to the appropriate wells in each plate, and then 4 ul/well substrate solution was added to initiate the reaction. The plate was protected from light and incubated at room temperature for 60 min. […] The plate was incubated for 1 h at room temperature, and HTRF (homogenous time resolved fluorescence) signal was measured on a PHERAstar FS plate reader (BMG labtech). Percentage of inhibition was calculated for each concentration and IC50 value was generated from curve fitting with GraphPad Prism software.
As to `CCCCNc1ncc2c(-c3ccc(CN4CCN(C)CC4)cc3)nc([C@H]3CC[C@@H](O)CC3)n2n1` [1 (2nd peak, cis-), cis-4-(2-(Butylamino)-5-{4-[(4-methylpiperazin-1-yl)methyl]phenyl}imidazo[5,1-f][1,2,4]triazin-7-yl)cyclohexanol], the IC50 is 100 to 500 nM.

On to `CCCCNc1ncc2c(-c3ccc(CN4CCOCC4)cc3)nc([C@H]3CC[C@H](O)CC3)n2n1` [2 (1st peak, trans-), trans-4-{2-(Butylamino)-5-[4-(morpholin-4-ylmethyl)phenyl]imidazo[5,1-f][1,2,4]triazin-7-yl}cyclohexanol], for which the IC50 lay within 100 to 500 nM.

The values are drawn from patent US9708333B2, “Fused bicyclic 1,2,4-triazine compounds as TAM inhibitors” (Incyte Corporation, priority 2015, dated 2017).
